Results: PubChem BioAssay (NCI)
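Five compound concentrations were applied to cells in 96-well plates for 48 hours; endpoints were derived by simple linear interpolation of the resulting dose-response curve. The concentration for 50% growth inhibition is given as GI50. TGI denotes the concentration required for complete inhibition of growth.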

Assays:
Test in all cases: NCI tumour cell line growth inhibition, 48 h
[1] = test system: HCC-2998 colon
[2] = test system: UACC-62 melanoma
[3] = test system: MDA-MB-231 breast
[4] = test system: CCRF-CEM leukemia
[5] = test system: SK-MEL-5 melanoma
[6] = test system: TK-10 renal
[7] = test system: SF-295 CNS
[8] = test system: OVCAR-4 ovarian
[9] = test system: NCI/ADR-RES ovarian
[10] = test system: DU-145 prostate
[11] = test system: KM12 colon
[12] = test system: SK-MEL-2 melanoma
[13] = test system: UACC-257 melanoma
[14] = test system: A549 NSCLC
[15] = test system: HOP-92 NSCLC
[16] = test system: NCI-H522 lung
[17] = test system: HCT-116 colon
[18] = test system: IGROV1 ovarian
[19] = test system: OVCAR-8 ovarian
[20] = test system: SF-268 CNS
[21] = test system: RPMI-8226 leukemia
[22] = test system: MOLT-4 leukemia
[23] = test system: A498 renal
[24] = test system: UO-31 renal
[25] = test system: SK-OV-3 ovarian
[26] = test system: PC-3 prostate
[27] = test system: RXF 393 renal
[28] = test system: SR leukemia
[29] = test system: K-562 leukemia
[30] = test system: BT-549 breast
[31] = test system: HT29 colon
[32] = test system: LOX IMVI melanoma
[33] = test system: M14 melanoma
[34] = test system: NCI-H226 lung
[35] = test system: HL-60(TB) leukemia
[36] = test system: COLO 205 colon
[37] = test system: MCF7 breast
[38] = test system: EKVX NSCLC
[39] = test system: OVCAR-3 ovarian
[40] = test system: SN12C renal
[41] = test system: CAKI-1 renal
[42] = test system: ACHN renal
[43] = test system: SF-539 CNS
[44] = test system: SW-620 colon
[45] = test system: MDA-MB-435
[46] = test system: T-47D breast
[47] = test system: SK-MEL-28 melanoma
[48] = test system: U251 CNS
[49] = test system: HOP-62 NSCLC
[50] = test system: SNB-75 CNS
[51] = test system: SNB-19 CNS
[52] = test system: 786-0 renal
[53] = test system: HS 578T breast
[54] = test system: HCT-15 colon
[55] = test system: OVCAR-5 ovarian
[56] = test system: NCI-H460 lung
[57] = test system: NCI-H23 lung

CC(=O)O[C@H]1C(=O)[C@@]2(C)[C@H]([C@H](OC(=O)c3ccccc3)[C@]3(O)C[C@H](OC(=O)[C@H](OC(=O)OC[C@@H]4COC(C)(C)O4)[C@@H](NC(=O)c4ccccc4)c4ccccc4)C(C)=C1C3(C)C)[C@]1(OC(C)=O)CO[C@@H]1C[C@@H]2O
GI50 [1]: 0.0969 µM
TGI [1]: > 33.3 µM
GI50 [2]: 0.0587 µM
TGI [2]: > 33.3 µM
GI50 [3]: 0.143 µM
TGI [3]: > 7.26 µM
GI50 [4]: 0.0402 µM
TGI [4]: > 33.3 µM
GI50 [5]: 0.147 µM
TGI [5]: > 33.3 µM
GI50 [6]: 0.656 µM
TGI [6]: > 33.3 µM
GI50 [7]: 0.0598 µM
TGI [7]: 0.574 µM
GI50 [8]: > 33.3 µM
TGI [8]: > 33.3 µM
GI50 [9]: > 33.3 µM
TGI [9]: > 33.3 µM
GI50 [10]: 0.0424 µM
TGI [10]: > 33.3 µM
GI50 [11]: 0.0196 µM
TGI [11]: > 33.3 µM
GI50 [12]: 0.175 µM
TGI [12]: > 33.3 µM
GI50 [13]: > 7.38 µM
TGI [13]: > 33.3 µM
GI50 [14]: 0.0488 µM
TGI [14]: > 33.3 µM
GI50 [15]: 0.0532 µM
TGI [15]: > 33.3 µM
GI50 [16]: 0.0375 µM
TGI [16]: > 33.3 µM
GI50 [17]: 0.0112 µM
TGI [17]: > 33.3 µM
GI50 [18]: 0.062 µM
TGI [18]: > 33.3 µM
GI50 [19]: 0.0857 µM
TGI [19]: > 33.3 µM
GI50 [20]: 0.251 µM
TGI [20]: > 33.3 µM
GI50 [21]: 0.00935 µM
TGI [21]: > 33.3 µM
GI50 [22]: 0.0571 µM
TGI [22]: > 33.3 µM
GI50 [23]: 0.0799 µM
TGI [23]: 0.758 µM
GI50 [24]: 1.79 µM
TGI [24]: > 33.3 µM
GI50 [25]: 1.02 µM
TGI [25]: > 33.3 µM
GI50 [26]: 0.0451 µM
TGI [26]: > 33.3 µM
GI50 [27]: 0.0454 µM
TGI [27]: 0.279 µM
GI50 [28]: 0.0312 µM
TGI [28]: > 33.3 µM
GI50 [29]: 0.0176 µM
TGI [29]: > 33.3 µM
GI50 [30]: 0.12 µM
TGI [30]: > 33.3 µM
GI50 [31]: 0.0104 µM
TGI [31]: > 33.3 µM
GI50 [32]: 0.0188 µM
TGI [32]: > 33.3 µM
GI50 [33]: 0.0268 µM
TGI [33]: 0.233 µM
GI50 [34]: 0.506 µM
TGI [34]: > 33.3 µM
GI50 [35]: 0.0241 µM
TGI [35]: > 33.3 µM
GI50 [36]: 0.0292 µM
TGI [36]: > 33.3 µM
GI50 [37]: 0.00971 µM
TGI [37]: > 33.3 µM
GI50 [38]: 0.19 µM
TGI [38]: > 33.3 µM
GI50 [39]: 0.0183 µM
GI50 [40]: 0.06 µM
TGI [40]: > 33.3 µM
GI50 [41]: 0.182 µM
TGI [41]: > 33.3 µM
GI50 [42]: 1.04 µM
TGI [42]: > 33.3 µM
GI50 [43]: 0.0715 µM
TGI [43]: 2.21 µM
GI50 [44]: 0.0213 µM
TGI [44]: > 33.3 µM
GI50 [45]: 0.00481 µM
TGI [45]: 0.0237 µM
GI50 [46]: 0.0631 µM
TGI [46]: > 33.3 µM
GI50 [47]: > 33.3 µM
TGI [47]: > 33.3 µM
GI50 [48]: 0.0409 µM
TGI [48]: > 33.3 µM
GI50 [49]: 0.119 µM
TGI [49]: > 33.3 µM
GI50 [50]: 0.00411 µM
TGI [50]: 0.137 µM
GI50 [51]: 0.0923 µM
TGI [51]: > 33.3 µM
GI50 [52]: 0.327 µM
TGI [52]: > 33.3 µM
GI50 [53]: 0.0256 µM
TGI [53]: 1.16 µM
GI50 [54]: 0.552 µM
TGI [54]: > 33.3 µM
GI50 [55]: 0.0603 µM
TGI [55]: > 33.3 µM
GI50 [56]: 0.00774 µM
TGI [56]: > 33.3 µM
GI50 [57]: 0.0726 µM
TGI [57]: > 33.3 µM

Cc1ccc(-c2c3c(nn2-c2ccc(S(=O)(=O)NC(=O)Nc4ccccc4)cc2)-c2ccccc2C3)cc1
GI50 [1]: 13.6 µM
TGI [1]: 37.9 µM
GI50 [2]: 12.8 µM
TGI [2]: 27.4 µM
GI50 [3]: 17.5 µM
TGI [3]: 55 µM
GI50 [4]: 2.13 µM
TGI [4]: > 100 µM
GI50 [5]: 15.1 µM
TGI [5]: 36.5 µM
GI50 [6]: 10.3 µM
TGI [6]: 24.8 µM
GI50 [7]: 34.5 µM
TGI [7]: > 100 µM
GI50 [8]: 19.7 µM
TGI [8]: 51.5 µM
GI50 [9]: 23.1 µM
TGI [9]: 75.5 µM
GI50 [10]: 15.3 µM
TGI [10]: 33.9 µM
GI50 [11]: 18 µM
TGI [11]: 51.2 µM
GI50 [12]: 16.1 µM
TGI [12]: 32.5 µM
GI50 [13]: 18.7 µM
TGI [13]: 39.9 µM
GI50 [14]: 28 µM
TGI [14]: > 100 µM
GI50 [15]: 18.1 µM
TGI [15]: 44.9 µM
GI50 [16]: 11.7 µM
TGI [16]: 30.5 µM
GI50 [17]: 19.2 µM
TGI [17]: > 100 µM
GI50 [18]: 3.67 µM
TGI [18]: 16.5 µM
GI50 [19]: 19.1 µM
TGI [19]: 52.9 µM
GI50 [20]: 19.1 µM
TGI [20]: 55.7 µM
GI50 [21]: 7.22 µM
TGI [21]: 69.3 µM
GI50 [22]: 5.14 µM
TGI [22]: > 100 µM
GI50 [23]: 19.6 µM
TGI [23]: 36.6 µM
GI50 [24]: 8.78 µM
TGI [24]: 24.3 µM
GI50 [25]: 18.2 µM
TGI [25]: 48.1 µM
GI50 [26]: 16 µM
TGI [26]: 38 µM
GI50 [27]: 17.9 µM
TGI [27]: 43.1 µM
GI50 [28]: 2.26 µM
TGI [28]: 6.92 µM
GI50 [29]: 11.1 µM
TGI [29]: > 100 µM
GI50 [30]: 18.8 µM
TGI [30]: 44.2 µM
GI50 [31]: 35.7 µM
TGI [31]: > 100 µM
GI50 [32]: 12.3 µM
TGI [32]: > 100 µM
GI50 [33]: 24.6 µM
TGI [33]: 87.2 µM
GI50 [34]: 15.4 µM
TGI [34]: 56 µM
GI50 [35]: 24.2 µM
TGI [35]: 83.7 µM
GI50 [36]: 19.5 µM
TGI [36]: 45.9 µM
GI50 [37]: 20.5 µM
TGI [37]: > 100 µM
GI50 [38]: 18.1 µM
TGI [38]: 43.8 µM
GI50 [39]: 32.9 µM
TGI [39]: > 100 µM
GI50 [40]: 16.9 µM
TGI [40]: 35.8 µM
GI50 [41]: 15.4 µM
TGI [41]: 45.5 µM
GI50 [42]: 14.6 µM
TGI [42]: 30.5 µM
GI50 [43]: 18.2 µM
TGI [43]: 38.9 µM
GI50 [44]: 12 µM
TGI [44]: > 100 µM
GI50 [45]: 28.1 µM
TGI [45]: > 100 µM
GI50 [46]: 30.7 µM
TGI [46]: > 100 µM
GI50 [47]: 21.2 µM
TGI [47]: 46.9 µM
GI50 [48]: 17.5 µM
TGI [48]: 37.6 µM
GI50 [49]: 32 µM
TGI [49]: > 100 µM
GI50 [50]: 22.9 µM
TGI [50]: 66.3 µM
GI50 [51]: 30 µM
TGI [51]: > 100 µM
GI50 [52]: 22.7 µM
TGI [52]: > 100 µM
GI50 [53]: 24.1 µM
TGI [53]: 73.9 µM
GI50 [54]: 15.5 µM
TGI [54]: 52.2 µM
GI50 [55]: 30.1 µM
TGI [55]: 97.2 µM
GI50 [56]: 19.3 µM
TGI [56]: 70.2 µM
GI50 [57]: 15 µM
TGI [57]: 37.6 µM
